Laboratory results as given in publication PMC4721142, “Randomized controlled studies on the efficacy of antiarthritic agents in inhibiting cartilage degeneration and pain associated with progression of osteoarthritis in the rat” (Arthritis Research & Therapy, 2016).
Read-outs that look alike come from different tables or passages of the source.

How the values were obtained:
[1] = Comparison of in vitro screens: overlapping effective and nontoxic range; settings: for Overlapping effective and nontoxic range: inhibits with minimal or no toxicity to synovium or cartilage, overlapping range if effective in more than one assay;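 as to all read-outs here: compares non-toxic ranges in synovial cells and chondrocytes with effective ranges against NFkB, MMP-13 and osteoclasts, giving their overlap as the predicted efficacy range in uM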
IKK-1 = settings: reported, cited from earlier work
[2] = test system: Normal human articular chondrocytes; test: Cytotoxicity to chondrogenic pellets (CellTiter-Blue)
Procedure: (§2) Differentiated chondrogenic pellets were used both to test the ability of drugs to block MMP-13 activity and to test for drug toxicity. […] Supernatants were collected and analyzed for MMP-13 using an enzyme-linked immunosorbent assay (GE Healthcare Life Sciences, Little Chalfont, UK). Cytotoxicity to pellets was assessed using CellTiter-Blue (Promega).

SW982 [3] = test: Synovial toxicity (CellTiter-Glo), with or without TNF-α
Procedure: (§3) Viability was measured with the CellTiter-Glo luminescent viability assay (Promega). […] To more accurately predict the effects of the drugs on osteoarthritic synovium, cells were tested with or without TNF-α (20 ng/ml; BioSource).
(§4) In Vitro Toxicity Testing with a Synovial Cell Line
(§5) Compounds were tested for synovial toxicity using SW982 cells alone or in the presence of TNF as

IKK-2 = settings: reported; cited from earlier work
HeLa cells = test: HeLa cell viability (CellTiter-Glo)
Procedure: (§1) NF-κB activity was assessed using a previously described dual plasmid reporter system. HeLa cells were transfected with NF-κB luciferase (Stratagene Products Division, Agilent Technologies, La Jolla, CA, USA) and pRLuc-N3 (PerkinElmer, Waltham, MA, USA) at an 8:1 ratio, respectively, in triplicate. […] NF-κB activity was measured 5 h later with a Dual-Glo Luciferase Assay (Promega, Madison, WI, USA) and an Omni plate reader (BMG Labtech, Cary, NC, USA). The ratio of firefly luciferase luminescence (NF-κB reporter) to Renilla luciferase luminescence (control) was normalized for the number of viable transfected cells. Data are reported as a ratio of activity of viable treated cells over the activity of cells not exposed to TNF-α or drug (fold stimulation above basal untreated levels of activity). The viability of HeLa cells with and without drug was also measured using a CellTiter-Glo luminescent viability assay (Promega).
In Vitro Hela Cell Drug Toxicity Testing
Potential drug toxicity was measured using a CTG assay and HeLa cells (Promega). Drugs not tested in
this assay were tested in either of the in vitro toxicity assays already presented (synovial or chondrocyte
Table 3- Drug toxicity measured using a CTG assay and HeLa cells.

[4] = published half-life; cited from earlier work
NF-κB = test: TNF-α-stimulated NF-κB dual luciferase reporter assay in HeLa cells; format: cell-based
Procedure: as §1, with “(Promega). […]” for “(Promega).”
NF-κB activity was assessed in HeLa cells that were transiently transfected with two reporter constructs as described in the manuscript. Agents were tested for their ability to block TNF- […]
Expression of the luciferase from the Renilla construct was used as a measure of viability, which was confirmed with a cytotoxicity assay (see later section).

[5] = test system: Normal human articular chondrocytes
Procedure: as §2

RAW 264.7 cells = test: RANKL-mediated osteoclastogenesis / matrix resorption (Osteologic) assay; format: cell-based, murine
Summary of the method: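 Agents were tested during or after differentiation. Wells were bleached and resorption pits were quantified by image analysis versus RANKL-only controls, using an unpaired t-test.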

SW982 [6] = test system: SW982
Procedure: as §3, §4, §5

MMP-13 = MMP-13 ELISA on supernatants of TNF-α-treated chondrogenic pellets; format: cell-based, human
IκBα phosphorylation = test system: IκBα phosphorylation; parameters: method as in PMID 18849610; settings: reported; read-out: IC50 for block of IκBα phosphorylation; cited from earlier work
[7] = test system: IL-8 and IL-6 in synovial fibroblasts; parameters: method as in PMID 15316093; settings: reported; read-out: IC50, blocks IL-8 and IL-6 in synovial fibroblasts; cited from earlier work
TNF-α in human monocytes = test system: TNF-α in human monocytes; parameters: method as in PMID 15316093; settings: reported; read-out: IC50, inhibits TNF-α in human monocytes; cited from earlier work
[8] = test system: rat inflammatory arthritis model; parameters: method as in per Calbiochem; settings: 30 mg/kg; ref per Calbiochem; cited from earlier work

Row | SMILES | Non-toxic & predicted range of efficacy [1] [µM] | Overlapping effective and nontoxic range [1] | Non-toxic range (Chondrocyte) [2] [µM] | Non-toxic range (Synovial) (SW982 [3]) [µM] | IC50 (IKK-2) [nM] | Non-toxic concentrations (HeLa cells) | Effective against NF κβ (p<0.05) (NF-κB) | Inhibition of NF-κB at the concentrations tested (NF-κB) | also measured
1 | Cc1ccc2nc(NCCN)c3ncc(C)n3c2c1 [BMS-345541] | 0.24 to 7.8 | 0.244 µM | 0.24 to 15.6 | 0.24 to 7.8 | 300 | 0.24 to 15.6 µM | 1 to 15.6 µM | failed to inhibit | IC50 (IKK-1): 4000 nM; t 1/2 [4]: 2.2 h
2 | [C-]#[O+].[C-]#[O+].[C-]#[O+].[C-]#[O+].[C-]#[O+].[C-]#[O+].[Cl][Ru][Cl].[Cl][Ru][Cl] [CORM-2, tricarbonyldichlororuthenium(II) dimer] | 20 to 40 | 20–40+ μM | – | – | – | – | – | – | Non-toxic range (Chondrocyte) [5]: 0.625 to 40 M; Lowest inhibitory concentration, matrix resorption (RAW 264.7 cells): 20 µM; Non-toxic range (Synovial) (SW982 [6]): 2.5 to 40 M; Effective range against MMP-13 (MMP-13): 10 – 40 M
3 | O=C(Nc1cc(C(F)(F)F)cc(C(F)(F)F)c1)c1cc(Cl)ccc1O [IKK inhibitor V, N-(3,5-bis-trifluoromethyl-phenyl)-5-chloro-2-hydroxy-benzamide] | 1.625 to 26 | 1.625 to 26 µM | – | – | – | None | Only at toxic | – | Non-toxic range (Chondrocyte) ([2]; male, human, 24 h): 0.4 to 13 µM; Non-toxic range (Synovial) (SW982 [3]; human): 0.1 to 0.2 µM; Toxic concentrations (p<0.05) (HeLa cells; human): 0.101 to 26 M; IC50 (IκBα phosphorylation): 250 nM
4 | N#Cc1c(C2CCNCC2)cc(-c2c(O)cccc2OCC2CC2)nc1N [IKK inhibitor VIII, 2-amino-6-(2-(cyclopropylmethoxy)-6-hydroxyphenyl)-4-(4-piperidinyl)-3-pyridinecarbonitrile] | 2 to 4 | 4 (toxicity to synovial cells) μM | 0.25 to 16 | 0.3 to 2 | 8.5 | – | – | – | IC50 (IKK-1; ref per Calbiochem): 250 nM; minimal effective concentration (RAW 264.7 cells; Mus musculus, RAW264.7, 168 h, read-out: Lowest inhibitory concentration, matrix resorption): 0.5 µM
5 | NC(=O)Nc1sc(-c2ccc(F)cc2)cc1C(N)=O [IKK-2 inhibitor IV, [5-(p-Fluorophenyl)-2-ureido]thiophene-3-carboxamide] | – | – | – | […] | […] | […] | Not consistently | […] | IC50 [7]: 100 nM; IC50 (TNF-α in human monocytes): 150 to 2500 nM; Reduced paw edema [8]: ~100%; Toxic concentrations (p<0.05) (HeLa cells): […]
